The source of these data is patent publication US8367653B2, “Azetidinyl diamides as monoacylglycerol lipase inhibitors” (Janssen Pharmaceutica NV, priority 2009, dated 2013).

Read-outs that look alike come from different tables or passages of the source.

For assay [1], the system named is CFA-induced paw radiant heat hypersensitivity. As to the kind of experiment: CFA-Induced Paw Radiant Heat Hypersensitivity. The assay is classed as in vivo. The settings on record: CFA thermal hypersensitivity, rat, 30 mg/kg p.o., HPβCD; group mean values; last time point 180 or 300 min. As for the experimental part: Each rat was placed in a test chamber on a warm glass surface and allowed to acclimate for approximately 10 min. A radiant thermal stimulus (beam of light) was then focused through the glass onto the plantar surface of each hind paw in turn. The thermal stimulus was automatically shut off by a photoelectric relay when the paw was moved or when the cut-off time was reached (20 sec for radiant heat at ˜5 amps). An initial (baseline) response latency to the thermal stimulus was recorded for each animal prior to the injection of complete Freund's adjuvant (CFA). […] Immediately following the post-CFA latency assessment, the indicated test compound or vehicle was administered orally.
The percent reversal (% R) of hypersensitivity was calculated in one of two different ways: 1) using group mean values or 2) using individual animal values. More specifically:
Method 2. For some compounds, the % R of hypersensitivity was calculated separately for each animal according to the following formula: % reversal=[(individual treatment response−individual CFA response)/(individual baseline response−individual CFA response)]×100. Results are given as a mean of the maximum % reversal values calculated for each individual animal.

In assay [2] the target is T1, MGL (rat brain homogenate) (Rattus norvegicus, UniProt Q8R431).
T1 construct: pre-incubated with rat brain homogenate (50 mg); from tissue; host or cells: rat brain homogenate
T1 sequence (Q8R431 1-303): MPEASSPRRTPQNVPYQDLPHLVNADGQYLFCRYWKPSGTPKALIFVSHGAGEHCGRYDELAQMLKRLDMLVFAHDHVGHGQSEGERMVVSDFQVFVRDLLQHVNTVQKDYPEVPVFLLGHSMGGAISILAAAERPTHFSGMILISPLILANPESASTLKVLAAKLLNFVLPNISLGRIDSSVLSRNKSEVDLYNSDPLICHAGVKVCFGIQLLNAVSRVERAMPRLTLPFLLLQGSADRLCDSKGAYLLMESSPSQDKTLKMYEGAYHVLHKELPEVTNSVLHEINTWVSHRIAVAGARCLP
As to the kind of experiment: 2-AG Accumulation Assay in rat brain homogenate. The assay is classed as biochemical. The settings on record: 0.25 h, compound 1 μM, percent of vehicle 2-AG accumulation, read-out: Rat Brain 2AG % VehCntrl (%) @1 μM.

Assay [3] has as its system murine model of acute inflammation. Conditions: Comelli et al. 2007; cited from earlier work.
For another assay, the system named is hot plate. Conditions: cited from earlier work.
For another assay, the system named is tail flick. Conditions: intravenous delivery (Mechoulam et al. 1995); cited from earlier work.

Take `O=C(c1ccc(-c2cccc(C(F)(F)F)c2)c(Cl)c1)N1CC(N2CCN(C(=O)c3cscn3)CC2)C1` [Cpd 1102]: in assay [1], the “Method 1: peak % reversal” value worked out at 38%. As for `Cc1ccc(-n2ccc3cc(C(=O)N4CC(N5CCN(C(=O)c6nccs6)CC5)C4)ccc32)nc1` [Cpd 1073, 1-(5-Methylpyridin-2-yl)-5-({3-[4-(1,3-thiazol-2-ylcarbonyl)piperazin-1-yl]azetidin-1-yl}carbonyl)-1H-indole], in assay [2], the activity at 1 µM was determined as 749%. For `O=C(Nc1cccc(-c2ccccc2)c1)OC1CCCCC1` [URB602], in assay [3], the antinociceptive effect entry was “antinociceptive effect”. For `C/C(=C\c1ccc(Cl)cc1)c1c(C)c(C(=O)N2CC(N3CCN(C(=O)c4nccs4)CC3)C2)nn1-c1ccc(Cl)cc1Cl` [Cpd 1010], the “Method 1: peak % reversal” value in assay [1] was 23.4%. As to `CCCCC/C=C\C/C=C\C/C=C\C/C=C\CCCC(=O)OC(CO)CO` [2-AG, 2-arachidinoylglycerol], the “analgesia in the hot plate assay” value with hot plate (combined with 2-linoleoyl glycerol and 2-palmitoyl glycerol (Ben-Shabat et al. 1998)) is given as “significant analgesia”; with hot plate (given alone (Ben-Shabat et al. 1998)), “not analgesic”; in the assay on hot plate (intravenous delivery (Lichtman et al. 2002)) it was “produces analgesia”. In the assay on tail flick, the “analgesia in the tail flick assay” value is recorded as “produces analgesia”.
